Assay [1] has as its target RNA motif 5′AAC3′/3′U_G5′ (from RNA library C). The experiment in a line: In solution, fluorescence-based binding affinity assay. As for the experimental part:
(§1) Affinity of Selected RNA Motif-Small Molecule Interactions. The affinity of exemplar compounds that have inherent fluorescence was measured. […] . Binding affinities were confirmed using a label-free method, biolayer interferometry.
(§2) where n1 is the size of Population 1 (number of sequencing reads for a given RNA from RNA-seq analysis of the selected library), n2 is the size of Population 2 (number of sequencing reads for the same RNA from RNA-seq analysis of the starting library), p1 is the observed proportion of Population 1 (the number of reads for a given RNA from selected library/total number of reads), and p2 is the observed proportion for Population 2 (the number of reads for the same RNA in the starting library/total number of reads). Generation of Logos and DiffLogos: Zobs corresponding to the highest (enriched) 0.5% and lowest (discriminated against) 0.5% scores were analyzed to generate consensus sequences, or Logos. The resulting list of sequences were converted to position weight matrix (PWM) lists for each compound. “Enriched” and “discriminated” sequences were kept separate using JMP®, Version <13.2.1>. SAS Institute Inc., Cary, N.C., 1989-2007. The R package Difflogo,^16 which is part of Bioconductor, was utilized to create the sequence logos from PWM lists for each compound and visually compare the differences between them. Binding Affinity Measurements. Dissociation constants were determined using an in solution, fluorescence-based assay. […] Serial dilutions (1:2) of the small molecule were then completed in 1× Assay Buffer supplemented with 1 mM MgCl2. The solutions were incubated for 30 min at room temperature, transferred to a 96-well plate, and fluorescence intensity measured on a BioTek-FLx800 plate reader. The change in fluorescence intensity as a function of small molecule concentration was fit to a one site binding model per equation 3: […]
(§3) Effect of compounds on HCV replication. […] Cytotoxicity assays. […] Oligonucleotide profiling of target engagement in vitro. […] Primers can be found in Table 4. […] Inhibition of kinases. […] . Figure S7C).

Assay [2] addresses RNA motif 5′GAG3′/3′C_C5′ (from RNA library C). The assay is described as above. As for the experimental part:
as §1, §2, §3

The target in assay [3] is RNA motif 5′UCCAU3′/3′AUCA (non-binder). Described as above. As for the experimental part: as §1, §2, §3
The target in assay [4] is RNA motif 5′UCCUU3′/3′AUUA5′ (non-binder). Described as above. How it is done:
as §1, §2, §3

For assay [5], the target named is RNA motif 5′UGU3′/3′G_A5′ (from RNA library C). Described as above. How it is done:
as §1, §2, §3

Assay [6] addresses RNA motif 5′GAU3′/3′C_A5′ (from RNA library C). The description is as above. As for the experimental part:
as §1, §2, §3

Assay [7] concerns the target RNA motif 5′GCU3′/3′C_A5′ (from RNA library C). The description is as above. As for the experimental part:
as §1, §2, §3

The target of assay [8] is RNA motif 5′UCUAU3′/3′ACCA5′ (from RNA library C). Described as above. How it is done: as §1, §2, §3
Assay [9] deals with WT SLI RNA (HCV SL I model). Kind of assay: Oligonucleotide profiling of target engagement in vitro (RNase H cleavage). Conditions: antisense oligonucleotide and RNase H. The assay is classed as biochemical, Hepatitis C virus.
Text: Compound 8 binds the desired site in HCV RNA in vitro and in cells. To validate that the lead compounds bind to the desired site in the HCV RNA genome, an approach to profile binding site by using an antisense oligonucleotide was developed (FIG. 8A). Antisense oligonucleotides bind to complementary RNAs and recruit RNase H, which cleaves the RNA strand. Upon small molecule binding, the RNA's structure is stabilized, making it more difficult for the oligonucleotide to invade the structure. Thus, small molecule binding sites can be read out by inhibition of oligonucleotide cleavage. For in vitro studies, a small segment of the target site was transcribed that folds into the desired structure.
(§4) Application of an antisense agent (Table 4) and RNase H cleaves the RNA at the desired site. […] Additional control experiments were completed in which the RNA was mutated to remove 8's binding site and the corresponding complementary oligonucleotide to induce RNase H cleavage.
as §3

For assay [10], the system named is BP-SLI RNA (mutated SL I). Kind of assay: Oligonucleotide profiling in vitro, control RNA mutated to remove 8's binding site. The assay is classed as biochemical, Hepatitis C virus. The note with it: complementary oligonucleotide.
Text: as §4, §3

Results on 2 compounds are retold here after US20220119868A1, “PROFILING RNA-SMALL MOLECULE BINDING SITES WITH OLIGONUCLEOTIDES” (priority 2018, published 2022).

On to `O=C(Nc1cccc(NC(=O)Nc2cc(C(=O)Nc3ccc(C4=NCCN4)cc3)ccc2C(=O)Nc2ccc(C3=NCCN3)cc2)c1)Nc1cc(C(=O)Nc2ccc(C3=NCCN3)cc2)ccc1C(=O)Nc1ccc(C2=NCCN2)cc1` [Compound 7], for which the Kd – broadly, the free concentration of one partner at which half of the binding sites on the other are occupied at equilibrium, for simple one-to-one binding – in assay [1] turned out to be 420 ± 41 nM; in assay [2], 410 ± 26 nM; in assay [3] it was 7200 ± 418 nM; in [4] it was 2080 ± 300 nM; in assay [5], 630 ± 36 nM.
With `O=C(Nc1ccc(C2=NCCN2)cc1)c1cc(C(=O)Nc2ccc(C3=NCCN3)cc2)cc(C(=O)Nc2ccc(C3=NCCN3)cc2)c1` [Compound 8], the Kd in assay [6] stood at 600 ± 61 nM; in assay [7], 450 ± 47 nM; in [8] it was 5580 ± 440 nM. Also, the “inhibition of antisense/RNase H-mediated cleavage of SL I in vitro” value in [9] is recorded as “limited the ability of the antisense to mediate cleavage of the target”. In addition, the “effect on antisense/RNase H cleavage of mutated RNA” value in assay [10] is “the extent and pattern of cleavage were similar in the absence and the presence of compound 8”.
